According to patent US6462055B2, “Alpha-methylbenzyl-containing thiourea inhibitors of herpes viruses containing a phenylenediamine group” (Wyeth, priority 1998, dated 2002):
In brackets after ≈: the same amount, converted by molar mass.

Columns and labels:
VZV strain Ellen = assay: VZV Antiviral (ELISA) Assay in human foreskin fibroblast cells; format: cell-based, varicella-zoster virus; conditions: for IC50: Human alphaherpesvirus 3, Fibroblast, read-out: IC50 (ug/ml) VZV
Experimental: For the generation of stock VZV to be used in the assay, VZV strain Ellen (ATCC #VR-1367) is used to infect human foreskin fibroblast (HFF) cells at low multiplicity (less than 0.1) and incubated overnight at 37° C. in 5% CO2. After the overnight incubation, the mixture of uninfected and VZV-infected HFF infected cells are then harvested and added to each well of 96-well plates (3.5×10^4 cells in 100 μl DMEM supplemented with 2% FBS) which contain test compound or the reference standard drug control (in 100 μl DMEM supplemented with 2% FBS per well). These cells are incubated for three days at 37° C. in 5% CO2, then fixed for ELISA assay. The primary antibody is murine anti-VZV glycoprotein II monoclonal antibody (Applied Biosystems, Inc. #13-145-100) and the secondary antibody is goat anti-mouse IgG linked to β-galactosidase. Thus the extent of viral replication is determined by assessing β-galactosidase activity by quantifying the generation of the 4-methyl umbelliferone fluorescent cleavage product after addition of the methyl umbelliferyl-β-D-galactoside (Sigma #M1633) substrate on a microfluorimeter (365 nm for excitation and 450 nm for emission). Antiviral activity (IC50) of the test compound is determined by comparing the flourescence obtained in absence of compound to that obtained in the presence of compound.

HSV-1 = assay: HSV Antiviral (ELISA) Assay in Vero cells; format: cell-based, herpes simplex virus type 1; conditions: HSV-1, Vero cells
Experimental: Vero cells (ATCC #CCL-81) are plated on 96-well tissue culture plates at 3.5×10^4 cells per 100 μl tissue culture DMEM (Dulbeccos modified Eagle media) supplemented with 2% fetal bovine serum (FBS) in each well. After overnight incubation @ 37° C. (in 5% CO2) and 30 minutes prior to infection with HSV-1 (multiplicity of infection equal to 0.006), cells are either untreated, or treated with test compound (multiple concentrations) or reference standard drug control. After approximately 24 hours post-infection incubation @ 37° C. (in 5% CO2), cells are fixed for ELISA assay. The primary antibody is murine anti-HSV glycoprotein D monoclonal primary antibody and the secondary antibody is goat anti-mouse IgG linked to β-galactosidase. Thus the extent of viral replication is determined by assessing β-galactosidase activity by quantifying the generation of the 4-methyl umbelliferone fluorescent cleavage product after addition of the methyl umbelliferyl-β-D-galactoside (Sigma #M1633) substrate on a microfluorimeter (365 nm for excitation and 450 nm for emission). Antiviral activity (IC50) of the test compound is determined by comparing the flourescence obtained in absence of compound to that obtained in the presence of compound.

Row | SMILES | IC50 (ug/ml) VZV (VZV strain Ellen) [µg/mL] | % inhibition 10 ug/ml VZV (VZV strain Ellen) [%] | IC50 (ug/ml) HSV (HSV-1) [µg/mL] | IC50 (VZV strain Ellen) [µg/mL]
1 | COc1cc(OC)c(NC(=S)Nc2ccc(NC(=O)c3cccc(N(C)C)c3)cc2)cc1Cl [Example 136] | >10 | 40 | 1 (≈ 2.06 µM) | –
2 | COc1cc(OC)c(NC(=S)Nc2ccc(NC(=O)c3cccc(NS(C)(=O)=O)c3)cc2)cc1Cl [Example 137] | >15 | 72 | – | –
3 | COc1cc(OC)c(NC(=S)Nc2ccc(NC(=O)c3ccc4ccccc4c3)cc2)cc1Cl [Example 156] | >10 | 17 | 2 (≈ 4.07 µM) | –
4 | COc1cc(OC)c(NC(=S)Nc2ccc(NC(=O)c3ccccc3-c3ccccc3)cc2)cc1Cl [Example 182] | >10 | 32 | – | –
5 | COc1cc(OC)c(NC(=S)Nc2ccc(NC(=O)c3ccccc3CO)cc2)cc1Cl [Example 185] | >10 | 32 | 3 (≈ 6.36 µM) | –
6 | CC(=O)Nc1ccc(NC(=S)Nc2ccc(NC(=O)c3ccccc3F)cc2)cc1Cl [Example 397] | >10 | 35 | 5 (≈ 10.9 µM) | –
7 | Cc1cccc(NC(=S)Nc2ccc(NC(=O)c3ccccc3F)cc2)c1 [Example 432] | >10 | 0 | 1.6 (≈ 4.22 µM) | –
8 | COc1cccc(NC(=S)Nc2ccc(NC(=O)c3ccccc3F)cc2)c1 [Example 487] | >10 | 48 | 4 (≈ 10.1 µM) | –
9 | O=C(Nc1ccc(NC(=S)Nc2ccc3[nH]cnc3c2)cc1)c1ccccc1F [Example 496] | >10 | 25 | >10 | –
10 | Cc1nc2cc(NC(=S)Nc3ccc(NC(=O)c4ccccc4F)cc3)ccc2[nH]1 [Example 497] | >10 | 10 | >10 | –
11 | CCC(C)Cc1cc(NC(=S)Nc2ccc(NC(=O)c3ccccc3F)cc2)cc(C(F)(F)F)c1 (stereo not shown) [Example 577] | >7.5 | – | – | –
12 | CC(C)Cc1cc(NC(=S)Nc2ccc(NC(=O)c3ccccc3F)cc2)cc(C(F)(F)F)c1 [Example 578] | >10 | – | – | –
13 | O=C(Nc1ccc(NC(=S)NCc2cc(F)cc(F)c2)cc1)c1ccccc1F [Example 580] | >10 | – | – | –
14 | O=C(Nc1ccc(NC(=S)NCc2cc(Cl)cc(Cl)c2)cc1)c1ccccc1F [Example 583] | 10 (≈ 22.3 µM) | – | – | –
15 | O=C(Nc1ccc(NC(=S)NCc2cc(F)cc(C(F)(F)F)c2)cc1)c1ccccc1F [Example 586] | – | – | – | > 10
16 | O=C(Nc1ccc(NC(=S)NCc2ccc(N3CCCCC3)c(C(F)(F)F)c2)cc1)c1ccccc1F [Example 616] | >10 | – | – | –
17 | O=C(Nc1ccc(NC(=S)NCc2ccc(F)c(C(F)(F)F)c2)cc1)c1ccccc1F [Example 623] | – | – | – | > 10
18 | O=C(Nc1ccc(NC(=S)NCCOc2ccccc2)cc1)c1ccccc1F [Example 625] | – | – | – | 4 (≈ 9.77 µM)
19 | O=C(Nc1ccc(NC(=S)NCCc2ccccc2F)cc1)c1ccccc1F [Example 721] | – | – | >10 | –
20 | CC(C)(C)c1ccc(CNC(=S)Nc2ccc(NC(=O)c3ccccc3F)cc2)cc1 [Example 724] | – | – | >10 | –
21 | Cc1cc(C)cc(CNC(=S)Nc2ccc(NC(=O)c3ccccc3F)cc2)c1 [Example 725] | – | – | >10 | –
22 | CC(C)(NC(=S)Nc1ccc(NC(=O)c2ccccc2F)cc1)c1ccccc1 [Example 727] | – | – | >10 | –
